According to patent US20250361271A1, “PEPTIDE AGONIST” (THE UNIVERSITY OF BIRMINGHAM, priority 2022, published 2025):
Where two headings read alike, the source gives them in different places. Where a SMILES comes first, the peptide text is derived from it. [ ]: non-standard residue; d: D form. pGlu = O=C1CC[C@@H](C(=O)O)N1

Tests used:
[1] = system: PBLs on cytokine stimulated HDBECs
Protocol: Blood samples were obtained from consensual healthy donors and were collected in EDTA tubes (Sigma-Aldrich). […] 5 ml of blood was layered on top of the density gradient, and was centrifuged at 2500 rpm for 45 minutes. […] The PBMCs were washed twice for 7 minutes at 1500 rpm. Peripheral blood lymphocytes (PBLs) were isolated via panning PBMCs onto a culture flask for 30 minutes at 37° C., allowing monocytes to adhere.
HDBECS defrosted at 37° C. in a 25 cm^2 cell culture flask in 10 ml of media were dissociated using EDTA (Sigma-Aldrich) and Trypsin (Gibco) and seeded on 10 wells in a 12-well tissue culture plates (Falcon) and left to adhere at 37° C. After 24 hours, confluent endothelial layers were cytokine stimulated using 100 U/ml TNF-α (Sigma-Aldrich) and 10 ng/ml IFN-γ (Peprotech) for 24 hours at 37° C. The peptide treatment of the 1×10^6 cells/ml PBLs consisted of adding the peptides immediately before use. […] 1×10^6 PBLs were added to each well and incubated at 37° C., allowing PBLs to adhere to migrate across the endothelium. […] Cells were then fixed with 2% glutaraldehyde for 10 minutes and then imaged using phase-contrast microscopy via an inverted bright-field microscope at 20× magnification.
Imaging of the PBL migration assay was carried out using ImagePro 7 software (Media Cybernetics). Surface adherent cells were categorised as being phase-bright, and transmigrated cells were categorised as phase-dark with altered morphology, appearing as being under the endothelial layer. Images were taken at 5 different fields of each well, and an average of counted adherent and migrated PBLs was calculated.
The same methods described for the in vitro transmigration assay and analysis were used, and PBL transmigration was calculated as a percentage of adherent cells. Peptides were added to the PBLs at concentrations ranging from 0.0001-500 ng/ml on the cytokine stimulated HDBECs and the resulting PBL transmigration (as a percentage of adherent cells) was plotted as a function of log10 of the peptide concentration.
The peptides were added at concentration of 20 ng/ml and run alongside untreated PBL (PBL0) and scrambled protein to analyse their effects on adhesion and transmigration.

[2] = T1/2 in plasma (mouse); format: in vitro ADME; settings: mouse, plasma; 1 μM peptide, 37° C.
Excerpt: Take all measurements in duplicate.

[3] = human, plasma

## C[C@H](NC(=O)CNC(=O)[C@@H]1CCC(=O)N1)C(=O)O [SEQ ID NO. 21, pEGA] ([pGlu]-Gly-Ala-OH)
[1]
  IC50: 0.12 nM
[1]; 3 nM peptide, inhibition of PBL transmigration (as a percentage of adherent cells)
  % Inhibition (3 nM): 41.20%
[2]
  half-life: > 3 h
[3]
  half-life: > 3 h
